Consider nine substances from patent US20130274196A1, “METHOD FOR TREATMENT OF INFLAMMATORY DISEASE AND DISORDER” (HEALOR LTD., priority 2010, published 2013).

Where “and” joins values, the source holds several entries; their conditions need not be identical. Equal entries are not always repeated. Entries after “also recorded” stand apart in the source; their conditions may differ. The star is where a group is joined. Palmitoyl = CCCCCCCCCCCCCCCC(=O)*; Myristoyl = CCCCCCCCCCCCCC(=O)*

For one data set, the system named is EAE mice. The data set can be described thus: Experimental allergic encephalomyelitis (EAE), MOG35-55/CFA immunized mice. It is filed as in vivo, C57BL/6J mice. To be noted: for Number of dead mice during 49 days: n=7; for Score on day 18 / Score on day 29 / Score on day 37: EAE scale 0-6; for EAE score on the initial day: scale 0-6.
Another data set has as its system keratinocytes. Briefly: Cytokine secretion in LPS, TNFα or IL-17 activated keratinocytes treated with peptide PKCα inhibitors (ELISA). The data set is classed as cell-based, BALB/C mice. To be noted: for cytokine secretion in keratinocytes: stimulated by LPS, TNFα, or IL-17, medium collected after 48 hr. As to the method: To determine their effects, keratinocytes were derived from newborn BALB/C mice skin. The cells were incubated for 5 days in 24 wells plate. Cells were then incubated with PBS −/− as control or stimulated by LPS, TNFα, or IL-17. PKCα inhibitors were added as indicated. Medium containing secreted cytokines was collected after 48 hr and analyzed using ELISA. FIG. 50 is a tabular summary of cytokine secretion.
In general terms: In an ELISA, binding on a coated surface is turned into a signal by an enzyme label.

Data set [1] has as its system C57BL mice. The data set can be described thus: Incision wounds treated 7 days, histological analysis (Example 9). It is filed as in vivo. As to the method:
Wounds were performed on the back of 8-10 week old C57BL mice by incision and were treated daily for 7 days with either vehicle (PBS) control or with 1 μM insulin (Humulin, Eli Lilly, USA) or a mixture of 1 μM insulin combined with 1 μM of the PKCα inhibitor of SEQ ID NO: 6. Seven days after wounding all mice were sacrificed and treated wounds were histologically analyzed for proliferative capacity of the epidermis (proliferating cell nuclear antigen-PCNA), angiogenesis, inflammation, epidermal cells and the remodeling processes at the wound gap.

Data set [2] concerns STZ-induced diabetic C57BL/6J mice. Briefly: Wound healing in STZ-induced diabetic mice. It is filed as in vivo. As to the method: Full thickness skin incisions (20 mm) were performed on the upper back of anesthetized streptozocin (STZ)-injected (175 mg/kg body weight) diabetic, citrate buffer injected (6 mice/group) non-diabetic, and non-injected (6 mice/group), C57BL/6J mice. Periodical blood glucose monitoring was performed by measuring glucose levels from tail vein after STZ injection. […] Following incision, STZ-induced diabetic wounds were treated daily by application of PBS (7/6 mice/group), insulin (0.1 units/ml) (6 mice/group), the PKCa inhibitor of SEQ ID NO:6 (1 μg/ml) (7/5 mice/group) or a formulation (herein designated HO/03/03) containing insulin and the N-myristoylated PKCα inhibitor of SEQ ID NO: 6 (7/6 mice/group) directly to the surgical dressing. Biopsies were collected 9 days post-wounding. Wounds were excised from euthanized animals for evaluation of wound-healing parameters by histology and immunohistochemistry.
Wounds were assessed for epidermal closure by Keratin 14 staining. Wounds were considered closed when complete epidermal staining was observed across the wound gap. Dermal contraction was considered when both dermal edges were visible in a fixed field ×100 magnification utilizing H&E staining. Epidermal differentiation was assessed by Keratin 1 staining.
The organization of hypodermis was assessed by the presence (or absence) of hypodermis at both wound edges. Granulation tissue formation was assessed by the presence of fibroblasts and collagen fibers in the wound bed. The wound was considered positive for granulation tissue formation when a continuous layer of granulation tissue was present in the wound gap. In addition, we have defined 3 specific histological parameters characterizing severe inflammation of diabetic wounds: (i) abscess formation at the wounded area, (ii) excessive leukocytosis (>100 cells in a fixed field (×200)) and (iii) high white blood cells (WBC)/red blood cells (RBC) ratio within the blood vessels shown in a fixed field (×200). When at least 2 of these parameters are present at the wound gap, the wound is considered severely inflamed.

The test system of data set [3] is C57BL mice. The data set can be described thus: Incision wounds treated 7 days, severe inflammation incidence (Example 10). It is filed as in vivo. As to conditions: 1 μM daily for 7 days. As to the method: Wounds were performed on the back of C57BL mice by incision and were treated daily for 7 days with: (i) PBS, control; (ii) 1 μM of the PKCα inhibitor of SEQ ID NO: 6; (iii) 1 μM insulin (Humulin, Eli Lilly, USA); or (iv) a mixture of 1 μM PKCα inhibitor and 1 μM insulin.

Where [4] appears, read: individual wounds, 1 μM daily for 7 days, listed as Insulin only.
The mark [5] stands for this setting: 9-days post wounding, percent of wounds in group, insulin 0.1 units, HO/02 1 ug/ml.
The mark [6] stands for this setting: 9-days post wounding, percent of wounds in group, insulin 0.1 units, SEQ ID NO: 6 1 ug/ml.

On to CRAMP [reference compound], for which, in the data set on EAE mice (0.2 mg/kg), the “The initial day (of illness signs)” value was determined as 10 days, the “Score on day 18” value was determined as 3.214, the “Score on day 29” value was 2.000 and the “Score on day 37” value was 2.571. Also, in the data set with EAE mice (0.2 mg/kg), the “EAE score on the initial day” value is reported as 0.571. Moreover, the “Number of dead mice during 49 days” value with EAE mice (0.2 mg/kg i.p. three times a week) amounted to 2. Further, in the data set with EAE mice (2 mg/kg), the “The initial day (of illness signs)” value was determined as 11 days, the “Score on day 18” value turned out to be 2.643, the “Score on day 29” value is recorded as 2.643 and the “Score on day 37” value was found to be 2.143. For the same substance, the “EAE score on the initial day” value in the data set on EAE mice (2 mg/kg) is 0.143. For the same substance, the “Number of dead mice during 49 days” value in the data set with EAE mice (2 mg/kg i.p. three times a week) is 2.
As for “H-Phe-Ala-Arg-Lys-Gly-Ala-Leu-Arg-Gln-OH (H-FARKGALRQ-OH) [AWOT-1]”, in the data set on keratinocytes, the “cytokine secretion in keratinocytes” value is listed as “effective in decreasing cytokine secretion”.
As to “H-Phe-Ala-Arg-Lys-Gly-Ala-Leu-Arg-Gln-OH-acetate salt (H-FARKGALRQ-OH; also: acetate salt) [PDY-1]”, in the data set on keratinocytes, the “cytokine secretion from IL-17A activated keratinocytes” value is “decrease cytokine secretion”; the “cytokine secretion from LPS and TNFα activated keratinocytes” value was “decrease cytokine secretion”.
Turning to “H-Thr-Leu-Asn-Pro-Gln-Trp-Glu-Ser-OH (H-TLNPQWES-OH) [AIP-1]”, the “cytokine secretion in keratinocytes” value in the data set on keratinocytes is “effective in decreasing cytokine secretion”.
“Insulin: insulin (Humulin, Eli Lilly, USA)”: in the data set with C57BL mice [1] (1 μM daily for 7 days), the “adverse side effects at the wound” value was “increased inflammation, hyperplasia of epidermal cells, delayed differentiation of the spinous layer of epidermal cells and increased scarring”. Moreover, in the data set on C57BL mice [1] (1 μM daily for 7 days, PBS control 25%), the “incidence of abnormal angiogenesis in the wound area” value came out at 60%. In addition, the “Proliferative capacity of the epidermis (layers of basal cells, PCNA), average” value in the data set on C57BL mice [1] (group average, N = 5, 1 μM daily for 7 days) is “average 6.4”. Besides, in the data set on C57BL mice [1] (setting [4]), the Angiogenesis entry is reported as “high abnormal; also recorded: normal”; the “Proliferative capacity of the epidermis (layers of basal cells, PCNA)” value is 8 (2×) and 6 and 5 (2×). For the same substance, in data set [2] (setting [5]), the “Dermal closure (H&E)” value is 0%, the “Epidermal closure (K14)” value was 17% and the “Epidermal differentiation (Kl)” value is listed as 0%. Further, in data set [2] (setting [6]), the Granulation tissue was 40%, the Hypodermis stood at 10% and the Severe inflammation is listed as 100%. In addition, in data set [2] (9 days post-wounding), the “overall healing effect in diabetic wounds” value was “only partial healing effects”. The “anti-inflammatory effect on wounds” value with C57BL mice [3] is listed as “no anti-inflammatory effect”. For the same substance, the “Incidence of severe inflammation in wound (%)” value with C57BL mice [3] (PBS control 60) worked out at 56%.
As to “Myristoyl-Phe-Ala-Arg-Lys-Gly-Ala-Leu-OH (Myristoyl-FARKGAL-OH; SMILES CCCCCCCCCCCCCC(=O)N[C@@H](Cc1ccccc1)C(=O)N[C@@H](C)C(=O)N[C@@H](CCCNC(=N)N)C(=O)N[C@@H](CCCCN)C(=O)NCC(=O)N[C@@H](C)C(=O)N[C@@H](CC(C)C)C(=O)O) [MPDY-1 sh]”, in the data set on keratinocytes, the “cytokine secretion from IL-17A activated keratinocytes” value was “decrease cytokine secretion”; the “cytokine secretion from LPS and TNFα activated keratinocytes” value is “decrease cytokine secretion”.
For the substance “Myristoyl-Phe-Ala-Arg-Lys-Gly-Ala-Leu-OH-trifluoracetate salt (Myristoyl-FARKGAL-OH; also: trifluoroacetate salt) [AIP-2]”, the “cytokine secretion in keratinocytes” value in the data set with keratinocytes is recorded as “effective in decreasing cytokine secretion”.
As for “Myristoyl-Thru-Arg-Lys-Arg-Gln-Arg-Ala-Met-Arg-Arg-Arg-Val-His-Gln-Ile-Asn-Gly-OH (Myristoyl-TRKRQRAMRRRVHQING-OH; SMILES CCCCCCCCCCCCCC(=O)N[C@H](C(=O)N[C@@H](CCCNC(=N)N)C(=O)N[C@@H](CCCCN)C(=O)N[C@@H](CCCNC(=N)N)C(=O)N[C@@H](CCC(N)=O)C(=O)N[C@@H](CCCNC(=N)N)C(=O)N[C@@H](C)C(=O)N[C@@H](CCSC)C(=O)N[C@@H](CCCNC(=N)N)C(=O)N[C@@H](CCCNC(=N)N)C(=O)N[C@@H](CCCNC(=N)N)C(=O)N[C@H](C(=O)N[C@@H](Cc1c[nH]cn1)C(=O)N[C@@H](CCC(N)=O)C(=O)N[C@H](C(=O)N[C@@H](CC(N)=O)C(=O)NCC(=O)O)[C@@H](C)CC)C(C)C)[C@@H](C)O) [MPE-1]”, in the data set with EAE mice (0.1 mg/kg), the “The initial day (of illness signs)” value was found to be 11 days, the “Score on day 18” value was found to be 2.857, the “Score on day 29” value turned out to be 1.929 and the “Score on day 37” value is given as 1.429. In the data set on EAE mice (0.1 mg/kg), the “EAE score on the initial day” value turned out to be 0.429. Further, the “EAE severity / score compared to control group” value in the data set with EAE mice (0.1 mg/kg (0.1 μg/ml)) was “reduced EAE severity”. Further, in the data set with EAE mice (1 mg/kg), the “The initial day (of illness signs)” value came to 10 days, the “Score on day 18” value turned out to be 3.071, the “Score on day 29” value is reported as 4.286 and the “Score on day 37” value came to 4.286. Further, the “EAE score on the initial day” value with EAE mice (1 mg/kg) is recorded as 0.429. Moreover, the “Number of dead mice during 49 days” value in the data set on EAE mice (1 mg/kg i.p. three times a week) was determined as 4. In addition, the “average group score at the end of the experiment (day 42)” value in the data set with EAE mice (concentration of 0.1 μg/ml, control group score 2.86) was 2.00.
As to “Palmitoyl-Phe-Ala-Arg-Lys-Gly-Ala-Leu-Arg-Gln-OH-acetate salt (Palmitoyl-FARKGALRQ-OH; also: acetate salt) [PPDY-1]”, in the data set with keratinocytes, the “cytokine secretion in keratinocytes” value was “effective in decreasing cytokine secretion”.
